In patent EP3539977B1, “ENZYMES WITH CHLOROGENIC ACID ESTERASE ACTIVITY AND FERULOYL ESTERASE ACTIVITY” (SternEnzym GmbH & Co. KG, priority 2014, dated 2016) one finds Km data, which are given here for three compounds.

For orientation: Km means the concentration of substrate that gives half-maximal velocity.

Several values for one entry are separate records, joined by “and”; a condition that tells them apart may be missing. Identical values can stand only once.

This assay addresses T1, UmChlE (Mycosarcoma maydis, UniProt A0A060S684, P492L).
T1 construct: purification of the chlorogenic acid esterase UmChlE from culture supernatant of U. maydis was accomplished by three complementary separation steps; made in house; host or cells: Ustilago maydis itself (native producer), culture supernatant; Q Sepharose FF, preparative IEF, polyamide column
As to the kind of experiment: Kinetic parameters of UmChlE from initial hydrolysis rates. The format is biochemical, Ustilago maydis. The settings on record: 0.005 - 1 mM substrate, 60 min, 37 °C, pH 7.5. Here is the method: Km and vmax values were calculated with non-linear regression using SigmaPlot 10.0 (Systat Software Inc., Chicago, USA). Blanks were carried out for all assays using water instead of enzyme. For calculation of kcat the molecular mass was determined using denaturing SDS-PAGE.
Kinetic properties were determined from initial hydrolysis rates for the most preferred substrates chlorogenic acid, MFA and MpCA. […] Consequently, the catalytic efficiency (kca/Km), a good indicator for enzyme efficiency and specificity, was better for chlorogenic acid than for the two synthetic substrates.

For `O=C(/C=C/c1ccc(O)c(O)c1)O[C@@H]1C[C@](O)(C(=O)O)C[C@@H](O)[C@H]1O` [chlorogenic acid], the Km is 19.6 µM.

Regarding `COC(=O)/C=C/c1ccc(O)cc1` [methyl p-coumarate], for the setting “listed as MpCA”, the Km is 64.1 µM and 64 µM.

In the case of `COC(=O)/C=C/c1ccc(O)c(OC)c1` [methyl ferulate], the Km came to 102 µM.
